Experiments:
acidophilic leucocyte = assay: Same trial: hematology checks, leukocyte fractionation; format: in vivo, human
[1] = tested on: patients with active ulcerative colitis; assay: Same trial: safety, adverse events; format: in vivo, human
Protocol: (§1) Superiority of the budesonide compared with placebo for mucosal healing as the primary endpoint are investigated for patients with active ulcerative colitis when budesonide 2 mg is rectally administered twice a day for 6 weeks by a double-blind comparative study with placebo as a control, and the safety thereof was investigated.
(§2) Furthermore, the efficacy and safety of administering were investigated, to patients with inflammatory bowel disease who have been administered 1.5 to 2.5 mg of budesonide twice a day for 6 weeks and shown signs of healing but no mucous membrane healing, 1.5 to 2.5 mg of budesonide twice a day for an additional 6 weeks (for a total of 12 weeks) (clinical trial number: Japic CTI—142704).
(§3) The test drug or control drug is rectally administered twice a day (once in the morning and once in the evening), after defecation, if possible. The number of injections per dose is one, the administration period is 6 weeks, if no mucous membrane healing occurred (an endoscope view score of 0 points), an administration period of 12 weeks can be used, and the drug is administered until the evening before the evaluation. The dose of budesonide in each group is 4 mg/day for the twice a day group, and 0 mg/day for the placebo group. The subjects with a 12-week administration period included 20 subjects in the budesonide administered group, and 18 subjects in the placebo group.

serous cortisol = assay: Same trial: blood biochemistry check, serous cortisol density; format: in vivo, human
[2] = tested on: patients with active ulcerative colitis; assay: Placebo-controlled double-blind trial: mucosal endoscopy, MMDAI endoscopic finding score; format: in vivo, human; conditions: for Number of subjects with MMDAI endoscopic finding score 0 / Number of subjects with MMDAI endoscopic finding score 1 / Number of subjects with MMDAI endoscopic finding score 2 / Number of subjects with MMDAI endoscopic finding score 3 / Percentage of subjects with MMDAI endoscopic finding score 0 / Percentage of subjects with MMDAI endoscopic finding score 1 / Percentage of subjects with MMDAI endoscopic finding score 2 / Percentage of subjects with MMDAI endoscopic finding score 3: 2 mg rectal foam twice a day, 20 cases
Protocol: Placebo-controlled randomized double-blind multicenter collaborative parallel group comparison test
as §1, §2
For the trial, an aerosol with fixed dose injection type for rectal injection (rectal foaming agent) is used as a test drug, in which 25 mL (1.35 g) of white creamy foam containing 2 mg of budesonide is released by one injection. As a remission induction therapeutic agent of ulcerative colitis in active phase where the lesion is confined to the rectum and sigmoid colon, the aerosol for rectal injection is approved in Europe at a dosage and dose of budesonide 2 mg once a day (trade name: Budenofalk 2 mg/dose rectal foam, manufactured by Dr. Falk Pharma GmbH).
The subjects are ulcerative colitis patients in active phase, and are divided into a group administered the test drug twice a day (hereafter, the budesonide-administered group), and a group administered the control drug (hereinafter, the placebo group).
as §3
The score by the doctor was used for the initial test, and after an administration period of 6 weeks, whether the prescription was continued for 6 more weeks or not. The score by the central judgment committee was used as the judgement of effectiveness. […] Furthermore, the change of the endoscope finding score from 6th week to 12th week of each subject of placebo group is shown in Table 2, and the change in the endoscope finding score from 6th week to 12th week of each subject of the budesonide-administered group is shown in Table 3.

[3] = tested on: serous ACTH (adrenocorticotropic hormone); assay: Same trial: blood biochemistry check, serous ACTH density; format: in vivo, human
[4] = cited from earlier work
[5] = 0th week (before prescription), 20 cases analysed
[6] = 12th week (prescription end), 19 cases analysed
[7] = After observation, 20 cases analysed
[8] = 0 week (before administration), 12-week subjects
[9] = Table 3 total over 6th week scores, of 20
[10] = Table 3 total over 6th week scores, unmeasured listed separately, of 20
[11] = change from 6th to 12th week, 2 mg twice a day, of 20

SMILES: CCCC1O[C@@H]2C[C@H]3[C@@H]4CCC5=CC(=O)C=C[C@]5(C)[C@H]4[C@@H](O)C[C@]3(C)[C@]2(C(=O)CO)O1 (mixture of isomers) [Budesonide, (+)-[(RS)-16α,17α-Butylidenedioxy-11β,21-dihydroxy-1,4-pregnadiene-3,20-dione]]
- Percentage of the acidophilic leucocyte of leukocyte fractionation (acidophilic leucocyte; 4th week to 12th week compared with 0th week and placebo group): decrease
- Other items of hematology and blood biochemistry checks (acidophilic leucocyte; in vivo): no clear fluctuation in other items could be seen
- Death, severe adverse events or serious adverse event ([1]; 12 week administration): no death, severe adverse events or serious adverse event, were observed
- Tolerability ([1]; budesonide 2 mg, rectal administration twice a day for 6 weeks (so in the source), patients of ulcerative colitis): acceptable
- Manifestation of adverse events as a result of the drug tested ([1]; versus placebo group): couldn't admit between Placebo group
- Manifested frequency of the adverse event ([1]; versus placebo group): higher than in the placebo group
- Serous cortisol: applicable examples (cases below standard value) (serous cortisol; [5]): 0
- Serous cortisol: percentage of cases below standard value (serous cortisol; [5]): 0.0%
- Serous cortisol: percentage of cases below standard value (serous cortisol; 0th week (before prescription), 20 cases analysed, listed as budesonide): 0%
- Serous cortisol density (serous cortisol; 6th week and 12th week versus 0th week (before prescription)): low compared with the 0th week
- Serous cortisol: applicable examples (cases below standard value) (serous cortisol; [6]): 11
- Serous cortisol: percentage of cases below standard value (serous cortisol; [6]): 57.9%
- Serous cortisol: applicable examples (cases below standard value) (serous cortisol; [7]): 2
- Serous cortisol: percentage of cases below standard value (serous cortisol; [7]): 10.0%
- Recovery of subjects with both serous cortisol and serous ACTH density below the standard value in the 12th week (serous cortisol; by the after observation): mostly recovered to within the standard value
- Serous cortisol density after end of administration (serous cortisol; observed for 2-4 weeks after the end of the 12-week administration period): reverting to the value in the 0th week
- Number of subjects with MMDAI endoscopic finding score 0 [2, 8]: 0 subjects
- Number of subjects with MMDAI endoscopic finding score 1 [2, 8]: 3 subjects
- Number of subjects with MMDAI endoscopic finding score 2 [2, 8]: 16 subjects
- Number of subjects with MMDAI endoscopic finding score 3 [2, 8]: 1 subjects
- Percentage of subjects with MMDAI endoscopic finding score 0 [2, 8]: (0.0) %
- Percentage of subjects with MMDAI endoscopic finding score 1 [2, 8]: (15.0) %
- Percentage of subjects with MMDAI endoscopic finding score 2 [2, 8]: (80.0) %
- Percentage of subjects with MMDAI endoscopic finding score 3 [2, 8]: (5.0) %
- Percentage with an endoscope view score of 0 in the 12th week, except for non-measured group ([2]; 6/15 examples, placebo 0% (0/13), administration continued for 6 more weeks): 40.0%
- Number of subjects with MMDAI endoscopic finding score 0 ([2]; 6th week, 12-week subjects): 4 subjects
- Number of subjects with MMDAI endoscopic finding score 1 ([2]; 6th week, 12-week subjects): 14 subjects
- Number of subjects with MMDAI endoscopic finding score 2 ([2]; 6th week, 12-week subjects): 2 subjects
- Number of subjects with MMDAI endoscopic finding score 3 ([2]; 6th week, 12-week subjects): 0 subjects
- Percentage of subjects with MMDAI endoscopic finding score 1 ([2]; 6th week, 12-week subjects): (70.0) %
- Number of subjects with MMDAI endoscopic finding score 0 ([2]; 12th week (Table 1)): 6 subjects
- Number of subjects with MMDAI endoscopic finding score 1 ([2]; 12th week (Table 1)): 8 subjects
- Number of subjects with MMDAI endoscopic finding score 2 ([2]; 12th week (Table 1)): 6 subjects
- Number of subjects with MMDAI endoscopic finding score 3 ([2]; 12th week (Table 1)): 0 subjects
- Percentage of subjects with MMDAI endoscopic finding score 0 ([2]; 12th week (Table 1)): (30.0) %
- Percentage of subjects with MMDAI endoscopic finding score 1 ([2]; 12th week (Table 1)): (40.0) %
- Percentage of subjects with MMDAI endoscopic finding score 2 ([2]; 12th week (Table 1)): (30.0) %
- Percentage of subjects with MMDAI endoscopic finding score 3 ([2]; 12th week (Table 1)): (0.0) %
- Number of subjects, 12th week Unmeasured, Total [2, 9]: 5 subjects
- Percentage of subjects, 12th week Unmeasured, Total [2, 9]: (25.0) %
- Number of subjects, endoscope finding score 12th week 0, Total [2, 10]: 6 subjects
- Number of subjects, endoscope finding score 12th week 1, Total [2, 10]: 7 subjects
- Number of subjects, endoscope finding score 12th week 2, Total [2, 10]: 2 subjects
- Number of subjects, endoscope finding score 12th week 3, Total [2, 10]: 0 subjects
- Percentage of subjects, endoscope finding score 12th week 0, Total [2, 10]: (30.0) %
- Percentage of subjects, endoscope finding score 12th week 1, Total [2, 10]: (35.0) %
- Percentage of subjects, endoscope finding score 12th week 2, Total [2, 10]: (10.0) %
- Percentage of subjects, endoscope finding score 12th week 3, Total [2, 10]: (0.0) %
- Number of subjects, endoscope finding score 6th week 0 / 12th week 0 [2, 11]: 0 subjects
- Number of subjects, endoscope finding score 6th week 0 / 12th week 1 [2, 11]: 1 subjects
- Number of subjects, endoscope finding score 6th week 0 / 12th week 2 [2, 11]: 0 subjects
- Number of subjects, endoscope finding score 6th week 0 / 12th week 3 [2, 11]: 0 subjects
- Number of subjects, endoscope finding score 6th week 0 / 12th week Unmeasured [2, 11]: 3 subjects
- Number of subjects, endoscope finding score 6th week 1 / 12th week 0 [2, 11]: 5 subjects
- Number of subjects, endoscope finding score 6th week 1 / 12th week 1 [2, 11]: 6 subjects
- Number of subjects, endoscope finding score 6th week 1 / 12th week 2 [2, 11]: 1 subjects
- Number of subjects, endoscope finding score 6th week 1 / 12th week 3 [2, 11]: 0 subjects
- Number of subjects, endoscope finding score 6th week 1 / 12th week Unmeasured [2, 11]: 2 subjects
- Number of subjects, endoscope finding score 6th week 2 / 12th week 0 [2, 11]: 1 subjects
- Number of subjects, endoscope finding score 6th week 2 / 12th week 1 [2, 11]: 0 subjects
- Number of subjects, endoscope finding score 6th week 2 / 12th week 2 [2, 11]: 1 subjects
- Number of subjects, endoscope finding score 6th week 2 / 12th week 3 [2, 11]: 0 subjects
- Number of subjects, endoscope finding score 6th week 2 / 12th week Unmeasured [2, 11]: 0 subjects
- Number of subjects, endoscope finding score 6th week 3 / 12th week 0 [2, 11]: 0 subjects
- Number of subjects, endoscope finding score 6th week 3 / 12th week 1 [2, 11]: 0 subjects
- Number of subjects, endoscope finding score 6th week 3 / 12th week 2 [2, 11]: 0 subjects
- Number of subjects, endoscope finding score 6th week 3 / 12th week 3 [2, 11]: 0 subjects
- Number of subjects, endoscope finding score 6th week 3 / 12th week Unmeasured [2, 11]: 0 subjects
- Percentage of subjects, endoscope finding score 6th week 0 / 12th week 0 [2, 11]: 0.0%
- Percentage of subjects, endoscope finding score 6th week 0 / 12th week 1 [2, 11]: 5.0%
- Percentage of subjects, endoscope finding score 6th week 0 / 12th week 2 [2, 11]: 0.0%
- Percentage of subjects, endoscope finding score 6th week 0 / 12th week 3 [2, 11]: 0.0%
- Percentage of subjects, endoscope finding score 6th week 0 / 12th week Unmeasured [2, 11]: 15.0%
- Percentage of subjects, endoscope finding score 6th week 1 / 12th week 1 [2, 11]: (30.0) %
- Percentage of subjects, endoscope finding score 6th week 1 / 12th week 3 [2, 11]: (0.0) %
- Percentage of subjects, endoscope finding score 6th week 1 / 12th week Unmeasured [2, 11]: (10.0) %
- Percentage of subjects, endoscope finding score 6th week 2 / 12th week 0 [2, 11]: 5.0%
- Percentage of subjects, endoscope finding score 6th week 2 / 12th week 1 [2, 11]: 0.0%
- Percentage of subjects, endoscope finding score 6th week 2 / 12th week 2 [2, 11]: 5.0%
- Percentage of subjects, endoscope finding score 6th week 2 / 12th week 3 [2, 11]: 0.0%
- Percentage of subjects, endoscope finding score 6th week 2 / 12th week Unmeasured [2, 11]: 0.0%
- Percentage of subjects, endoscope finding score 6th week 3 / 12th week 0 [2, 11]: 0.0%
- Percentage of subjects, endoscope finding score 6th week 3 / 12th week 1 [2, 11]: 0.0%
- Percentage of subjects, endoscope finding score 6th week 3 / 12th week 2 [2, 11]: 0.0%
- Percentage of subjects, endoscope finding score 6th week 3 / 12th week 3 [2, 11]: 0.0%
- Percentage of subjects, endoscope finding score 6th week 3 / 12th week Unmeasured [2, 11]: 0.0%
- Serous ACTH: applicable examples (cases below standard value) [3, 5]: 3
- Serous ACTH: percentage of cases below standard value [3, 5]: 15.0%
- Serous ACTH: applicable examples (cases below standard value) [3, 6]: 8
- Serous ACTH: percentage of cases below standard value [3, 6]: 42.1%
- Serous ACTH: applicable examples (cases below standard value) [3, 7]: 2
- Serous ACTH: percentage of cases below standard value [3, 7]: 10.0%
- Solubility in water [4]: low solubility in water

Source: patent publication US11464733B2, “Enema for rectal application” (Dr. Falk Pharma GmbH, priority 2016, dated 2022)
